Activity calls are given as the source filed them.
Legend:
cells = assay type: functional
[1] = Luminescence Cell-Based Dose Retest to Confirm Inhibitors of Cancer Stem Cells. [Related pubchem assays (depositor defined):AID2717, AID2721]; assay type: functional; details: Homo sapiens
Cytochrome P450 2C19 = Cytochrome P450 2C19 (Homo sapiens, UniProt P33261); assay: Cytochrome panel assay with activity outcomes. Panel member name: p450-cyp2c19 Compounds with AC50 equal or less than 10 uM are considered active; assay type: functional; details: read-out: AC50
Cytochrome P450 1A2 = target: T1, Cytochrome P450 1A2 (Homo sapiens, UniProt P05177);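 also: PubChem cytochrome P450 panel assay, CYP1A2 panel member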
T1 sequence (P05177 whole entry): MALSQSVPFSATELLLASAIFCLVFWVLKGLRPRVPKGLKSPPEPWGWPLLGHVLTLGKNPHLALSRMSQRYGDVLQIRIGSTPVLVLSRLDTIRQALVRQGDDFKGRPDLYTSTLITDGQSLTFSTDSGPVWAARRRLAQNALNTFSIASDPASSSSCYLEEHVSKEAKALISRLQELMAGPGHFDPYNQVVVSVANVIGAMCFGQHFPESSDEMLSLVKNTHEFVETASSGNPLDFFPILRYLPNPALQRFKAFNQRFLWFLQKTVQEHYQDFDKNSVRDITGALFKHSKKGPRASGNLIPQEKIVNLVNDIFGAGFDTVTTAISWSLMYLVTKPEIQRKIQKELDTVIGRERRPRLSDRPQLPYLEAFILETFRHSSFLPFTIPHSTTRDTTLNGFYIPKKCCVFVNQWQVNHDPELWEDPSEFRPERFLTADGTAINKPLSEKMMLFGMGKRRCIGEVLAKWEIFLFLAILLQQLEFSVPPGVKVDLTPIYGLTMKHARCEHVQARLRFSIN

[2] = target: T2, Heat shock factor protein 1 (Mus musculus, UniProt P38532); assay: enhancement of HSF1-driven luciferase signal – cell-based, NIH3T3, luminescence, dose retest, confirmation (AID 435004); assay type: functional;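 also: stress induced by proteasome inhibitor MG132 added 30 min after compound; luciferase reporter driven by HSF1 response element in NIH3T3 cells; actives raise luminescence as potentiators of the MG132 stress response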
T2 sequence (P38532 whole entry): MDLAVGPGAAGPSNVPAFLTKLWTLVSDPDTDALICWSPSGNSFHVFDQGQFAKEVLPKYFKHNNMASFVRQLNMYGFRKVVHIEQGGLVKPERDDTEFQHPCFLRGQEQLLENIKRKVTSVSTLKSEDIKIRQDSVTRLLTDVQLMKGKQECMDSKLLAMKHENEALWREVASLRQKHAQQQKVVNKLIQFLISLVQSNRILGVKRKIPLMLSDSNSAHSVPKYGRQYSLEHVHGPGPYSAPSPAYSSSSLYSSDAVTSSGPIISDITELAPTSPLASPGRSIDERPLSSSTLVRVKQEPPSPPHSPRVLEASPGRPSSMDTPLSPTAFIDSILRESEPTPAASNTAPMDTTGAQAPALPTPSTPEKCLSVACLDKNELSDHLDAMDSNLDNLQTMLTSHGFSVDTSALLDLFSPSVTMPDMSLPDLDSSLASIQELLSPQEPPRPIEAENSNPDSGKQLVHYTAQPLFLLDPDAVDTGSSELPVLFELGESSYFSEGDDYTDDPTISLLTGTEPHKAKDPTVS

[3] = target: T3, RNA-binding protein pos-1 (Caenorhabditis elegans, UniProt G5EF15); assay: disruptors of C. elegans POS-1 RNA interaction – biochemical, fluorescence polarization, dose response (AID 1964);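 also: purified POS-1 fused to maltose binding protein made in E. coli; potency of compounds blocking POS-1 binding to fluorescent RNA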
T3 sequence (G5EF15 whole entry): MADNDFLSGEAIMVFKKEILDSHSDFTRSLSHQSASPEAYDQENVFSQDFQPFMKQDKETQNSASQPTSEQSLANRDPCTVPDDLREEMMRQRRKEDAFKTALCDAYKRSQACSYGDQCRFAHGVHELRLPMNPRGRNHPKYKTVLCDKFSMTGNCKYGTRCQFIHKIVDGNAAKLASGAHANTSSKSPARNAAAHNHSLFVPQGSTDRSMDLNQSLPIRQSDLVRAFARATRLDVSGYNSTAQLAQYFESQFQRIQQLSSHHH

[4] = target: T4, Zinc finger protein mex-5 (Caenorhabditis elegans, UniProt Q9XUB2); assay: potency of MEX-5 RNA-binding blockers – biochemical, C. elegans, fluorescence polarization, dose response (AID 1960)
T4 sequence (Q9XUB2 whole entry): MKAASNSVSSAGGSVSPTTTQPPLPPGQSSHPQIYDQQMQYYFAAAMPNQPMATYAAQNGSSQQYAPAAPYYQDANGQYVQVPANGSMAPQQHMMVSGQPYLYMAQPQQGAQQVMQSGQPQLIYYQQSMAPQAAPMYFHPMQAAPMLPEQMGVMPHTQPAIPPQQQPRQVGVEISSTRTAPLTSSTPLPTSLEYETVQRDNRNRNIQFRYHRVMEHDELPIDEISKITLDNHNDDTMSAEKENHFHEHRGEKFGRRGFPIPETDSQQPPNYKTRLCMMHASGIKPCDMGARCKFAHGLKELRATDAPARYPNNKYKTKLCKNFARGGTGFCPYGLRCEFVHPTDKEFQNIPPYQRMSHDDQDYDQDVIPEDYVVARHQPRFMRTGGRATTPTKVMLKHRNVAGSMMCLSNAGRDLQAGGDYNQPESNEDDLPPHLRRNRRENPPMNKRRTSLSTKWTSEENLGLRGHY

Cytochrome P450 3A4 = Cytochrome P450 3A4 (Homo sapiens, UniProt P08684);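 also: CYP3A4 tested as one member of a cytochrome P450 panel screen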
Cytochrome P450 2D6 = Cytochrome P450 2D6 (Homo sapiens, UniProt P10635);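 also: CYP2D6 member of a cytochrome P450 panel assay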
Cytochrome P450 2C9 = Cytochrome P450 2C9 (Homo sapiens, UniProt P11712)
Chain of Cytochrome P450 2C9 (P11712 whole entry): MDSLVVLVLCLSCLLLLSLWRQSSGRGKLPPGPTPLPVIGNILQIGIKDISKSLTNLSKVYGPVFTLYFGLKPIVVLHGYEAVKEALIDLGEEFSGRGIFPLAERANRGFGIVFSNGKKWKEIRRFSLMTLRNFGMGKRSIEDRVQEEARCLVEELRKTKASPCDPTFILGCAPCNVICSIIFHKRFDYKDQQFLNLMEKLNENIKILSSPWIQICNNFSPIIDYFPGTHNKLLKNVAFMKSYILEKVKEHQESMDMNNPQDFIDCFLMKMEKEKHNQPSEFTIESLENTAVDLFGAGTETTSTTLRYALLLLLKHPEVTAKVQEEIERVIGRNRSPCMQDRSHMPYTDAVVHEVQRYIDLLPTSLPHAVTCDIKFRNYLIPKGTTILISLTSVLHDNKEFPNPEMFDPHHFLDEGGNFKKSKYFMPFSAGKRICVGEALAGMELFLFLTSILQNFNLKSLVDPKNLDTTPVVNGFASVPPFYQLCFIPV

Chain of Cytochrome P450 3A4 (P08684 whole entry): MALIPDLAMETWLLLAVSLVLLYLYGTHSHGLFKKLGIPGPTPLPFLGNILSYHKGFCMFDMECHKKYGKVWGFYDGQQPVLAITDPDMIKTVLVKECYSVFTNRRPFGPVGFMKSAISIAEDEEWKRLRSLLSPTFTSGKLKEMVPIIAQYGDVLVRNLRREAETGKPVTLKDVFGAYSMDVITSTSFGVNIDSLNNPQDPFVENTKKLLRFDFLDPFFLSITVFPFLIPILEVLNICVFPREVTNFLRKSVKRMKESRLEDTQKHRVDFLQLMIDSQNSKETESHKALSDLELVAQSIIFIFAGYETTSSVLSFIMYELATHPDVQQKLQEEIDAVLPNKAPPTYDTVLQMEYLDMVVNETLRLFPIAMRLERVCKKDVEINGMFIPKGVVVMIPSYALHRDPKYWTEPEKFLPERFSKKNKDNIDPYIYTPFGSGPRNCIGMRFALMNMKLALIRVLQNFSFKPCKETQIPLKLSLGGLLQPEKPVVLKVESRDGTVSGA
Chain of Cytochrome P450 2D6 (P10635 whole entry): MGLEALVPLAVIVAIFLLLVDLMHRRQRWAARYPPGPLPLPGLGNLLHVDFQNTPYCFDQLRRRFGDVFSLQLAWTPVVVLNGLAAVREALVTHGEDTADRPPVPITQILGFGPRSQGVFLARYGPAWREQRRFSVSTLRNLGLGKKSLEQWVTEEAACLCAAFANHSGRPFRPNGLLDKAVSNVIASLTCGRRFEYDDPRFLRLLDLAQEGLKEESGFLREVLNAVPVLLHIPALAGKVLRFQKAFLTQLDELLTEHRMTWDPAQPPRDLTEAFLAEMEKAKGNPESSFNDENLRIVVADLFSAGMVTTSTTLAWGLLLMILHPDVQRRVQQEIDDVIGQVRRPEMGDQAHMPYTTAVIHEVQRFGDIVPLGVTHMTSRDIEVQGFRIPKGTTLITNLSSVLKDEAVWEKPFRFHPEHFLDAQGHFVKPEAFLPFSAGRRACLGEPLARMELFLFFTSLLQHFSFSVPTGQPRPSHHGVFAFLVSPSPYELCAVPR
Chain of Cytochrome P450 2C19 (P33261 whole entry): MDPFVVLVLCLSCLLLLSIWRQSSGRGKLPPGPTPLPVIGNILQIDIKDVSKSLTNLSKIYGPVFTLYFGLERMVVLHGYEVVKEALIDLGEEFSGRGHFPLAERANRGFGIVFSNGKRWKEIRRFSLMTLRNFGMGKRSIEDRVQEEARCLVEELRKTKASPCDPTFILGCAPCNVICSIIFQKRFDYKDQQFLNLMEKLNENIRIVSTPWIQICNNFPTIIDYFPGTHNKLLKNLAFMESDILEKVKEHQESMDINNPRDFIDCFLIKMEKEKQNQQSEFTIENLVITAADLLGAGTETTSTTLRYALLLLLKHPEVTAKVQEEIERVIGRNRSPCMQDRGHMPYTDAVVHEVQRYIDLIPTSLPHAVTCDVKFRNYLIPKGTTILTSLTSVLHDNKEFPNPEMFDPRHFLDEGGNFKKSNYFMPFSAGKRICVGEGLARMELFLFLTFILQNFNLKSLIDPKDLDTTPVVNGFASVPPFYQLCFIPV

O=C(Oc1cccc2cccnc12)c1cccc([N+](=O)[O-])c1
IC50 (cells): 10.9 µM (active)

CN(C)CCOc1ccc(C(C)(C)c2ccccc2)cc1
AC50 [1]: 1.96 µM (active)

O=C(O)c1ccccc1C(=O)NNc1ccc(Cl)cc1
AC50 [1]: 0.983 µM (active) | AC50 (Cytochrome P450 2C19): 5.01 µM (inconclusive) | AC50 (Cytochrome P450 1A2): 6.31 µM (inconclusive)

Cc1cc(C(=O)N2CCN(c3ccccn3)CC2)c(C)o1
EC50 [2]: > 260 µM (inactive)

CN(C)CCNc1nc2sc3c(c2c(=O)n1-c1ccccc1)CCCCC3
AC50 [1]: 4.27 µM (active)

CC(=O)Nc1ccc(/C=C/C(=O)c2ccc3c(c2)OCCO3)cc1
EC50 [3]: > 300 µM (not active) | EC50 [4]: > 300 µM (not active)

CC(C)CCNC1c2ccccc2C(=O)N1Cc1ccccc1 (stereo not drawn)
EC50 [2]: > 260 µM (inactive)

COc1ccc(CNc2ccnc(-c3ccccc3CN(C)C)n2)c(OC)c1
AC50 (Cytochrome P450 1A2): 15.8 µM (inconclusive)

CCNc1ncc2nc(-c3cccs3)c(=O)n(Cc3cccc(OC)c3)c2n1
AC50 (Cytochrome P450 1A2): 0.126 µM (inconclusive) | AC50 (Cytochrome P450 3A4): 12.6 µM (inconclusive)

CN1CCN(c2c(F)cc3c(=O)c(C(=O)O)cn4c3c2SCC4)CC1
IC50 (cells): 8.05 µM (active)

Cc1cccc2cc(CN(Cc3ccccc3)C(=O)c3cccc(F)c3)c(Cl)nc12
AC50 (Cytochrome P450 2D6): 15.8 µM (inconclusive) | AC50 (Cytochrome P450 1A2): 11.2 µM (inconclusive)

CCN(CC)CCN/C=C1/C(=O)NC(=O)N(Cc2ccccc2)C1=O
EC50 [3]: > 300 µM (not active) | EC50 [4]: > 300 µM (not active)

O=C(COC(=O)c1cc(Cl)ccc1O)c1ccc2c(c1)OCO2
IC50 (cells): 12.1 µM (active)

COC(=O)CN(C#N)c1nc(SC)nc(N(C)C)n1
IC50 (cells): 18.9 µM (active)

Cc1ccccc1OCCNC=C1C(=O)N(C)C(=O)N(C)C1=O
AC50 (Cytochrome P450 3A4): 20 µM (inconclusive) | AC50 (Cytochrome P450 2C9): 0.0126 µM (inconclusive)

COc1ccccc1NC(=O)C1=C(C)Nc2nnnn2C1c1cccc(Br)c1 (stereo not drawn)
AC50 (Cytochrome P450 2D6): 15.8 µM (inconclusive) | AC50 (Cytochrome P450 1A2): 31.6 µM (inconclusive)

Cc1ccc2cc3c(nc2c1)OCC3
IC50 (cells): > 50 µM (active)

Cc1cccc(CN2CCN([C@@H](c3ccccc3)c3ccc(Cl)cc3)CC2)c1
AC50 (Cytochrome P450 2C19): 2.51 µM (inconclusive) | AC50 (Cytochrome P450 1A2): 10 µM (inconclusive)

CC1=CC(C)(C)N(C)C(=O)N1c1ccc(Cl)cc1
AC50 (Cytochrome P450 1A2): 17.8 µM (inconclusive) | AC50 (Cytochrome P450 2C9): 31.6 µM (inconclusive)

C[C@@H](Cc1ccc(Cl)cc1Cl)NO
AC50 (Cytochrome P450 1A2): 0.251 µM (active)

CCCc1cc(-c2nc(-c3ccc(C)cc3)cs2)ccn1
AC50 [1]: 3.62 µM (active)

O=C(NCCN1CCOCC1)c1cccn2c(=O)c3c4c(sc3nc12)CCCC4
EC50 [3]: > 300 µM (not active) | EC50 [4]: > 300 µM (not active)

CCOC(=O)CSCC(NC(=O)OC(C)(C)C)C(=O)OCC (stereo not drawn)
AC50 (Cytochrome P450 1A2): 25.1 µM (inconclusive) | AC50 (Cytochrome P450 2C9): 14.1 µM (inconclusive)

CCOc1ccc(C(=O)NC2CC3CCCC(C2)N3CC(C)C)cc1 (stereo not drawn)
EC50 [2]: > 260 µM (inactive)

Cc1ccc(C(=O)Cn2nnc3c(sc4nc5c(c(-c6ccccc6)c43)CCC5)c2=O)cc1
AC50 [1]: 0.462 µM (active) | AC50 (Cytochrome P450 2C19): 25.1 µM (inconclusive)

CCOC(=O)COc1cc(O)c2c(=O)cc(-c3ccccc3)oc2c1
IC50 (cells): 0.86 µM (active)

O=C(NC(CO)(CO)CO)c1coc(=O)c(Br)c1
EC50 [2]: > 260 µM (inactive)

COc1ccc(C2C(C#N)=C(N)OC3=C2C(=O)CC(C)(C)C3)cc1Cn1cc([N+](=O)[O-])cn1 (stereo not drawn)
EC50 [3]: > 300 µM (not active) | EC50 [4]: > 300 µM (not active)

O=C(Nc1cccc([N+](=O)[O-])c1)c1ccc(CSc2ccccc2)cc1
AC50 (Cytochrome P450 2C19): 14.1 µM (inconclusive) | AC50 (Cytochrome P450 3A4): 20 µM (inconclusive) | AC50 (Cytochrome P450 2C9): 0.562 µM (inconclusive)

CC#C[C@]1(O)CC[C@H]2[C@@H]3CCC4=CC(=O)CCC4=C3[C@H](c3ccc(N(C)C)cc3)C[C@@]21C
AC50 (Cytochrome P450 1A2): 25.1 µM (inconclusive)

CCCCCCSc1cccc(-c2nc3ccc(Cl)cn3c2NCc2ccccc2)c1
AC50 [1]: 1.55 µM (active)

Cc1c(NC(=O)/C=C/c2cn(-c3ccccc3)nc2-c2ccc(F)cc2)c(=O)n(-c2ccccc2)n1C
AC50 (Cytochrome P450 1A2): 28.2 µM (inconclusive) | AC50 (Cytochrome P450 3A4): 25.1 µM (inconclusive) | AC50 (Cytochrome P450 2C9): 20 µM (inconclusive)

CC1CCCN(c2ccc(C(=O)N3CCC4(CC3)OCCO4)cc2[N+](=O)[O-])C1 (stereo not drawn)
AC50 [1]: 4.55 µM (active)

CCN1CCN(c2cc(C(C)(C)C)nc3c(-c4ccccc4)c(C)nn23)CC1
AC50 [1]: 5.68 µM (active)

Cc1ccnc(NC(=O)COc2ccc3c(c2)CCC3)c1
IC50 (cells): 24.5 µM (active)

O=C(NCc1ccccn1)C1Nc2ccc(C(F)(F)F)cc2C2C=CCC12 (stereo not drawn)
EC50 [3]: > 300 µM (not active) | EC50 [4]: > 300 µM (not active)

CS(=O)(=O)N1CCC[C@@]2(CCN(Cc3nccs3)C2)C1
AC50 (Cytochrome P450 2C19): 39.8 µM (inconclusive) | AC50 (Cytochrome P450 2D6): 39.8 µM (inconclusive) | AC50 (Cytochrome P450 3A4): 12.6 µM (inconclusive)

COc1ccc(C2C(C#N)=C(N)OC3=C2C(=O)CC(C)(C)C3)cc1Cn1nc(C)c([N+](=O)[O-])c1C (stereo not drawn)
EC50 [3]: > 300 µM (not active) | EC50 [4]: > 300 µM (not active)

CC(C)c1cccc(C(C)C)c1OC(=O)[C@H]1OC(c2ccc(Br)cc2)=C[C@@H]1c1ccc(Br)cc1
AC50 [1]: 3.58 µM (active)

COc1ccc(CCNc2cc(C)nc3c(-c4ccc(Cl)cc4)c(C)nn23)cc1OC
AC50 [1]: 2.88 µM (active)

O=C(CCCC1=NS(=O)(=O)c2ccccc2N1)N1CCC2(CC1)OCCO2
AC50 (Cytochrome P450 2C19): 17.8 µM (inconclusive) | AC50 (Cytochrome P450 3A4): 35.5 µM (inconclusive) | AC50 (Cytochrome P450 2C9): 25.1 µM (inconclusive)

CCc1cc2c(nc1CC)CCN(CC/C(C)=N/OC[C@@H](O)COCc1ccco1)C2
AC50 (Cytochrome P450 2D6): 3.98 µM (inconclusive) | AC50 (Cytochrome P450 3A4): 3.16 µM (inconclusive)

CCOC(=O)n1c(=O)n(Cc2ccccc2Cl)c2ccccc21
AC50 (Cytochrome P450 2D6): 28.2 µM (inconclusive) | AC50 (Cytochrome P450 3A4): 15.8 µM (inconclusive)

CCOC(=O)CC1C(=O)NCCN1S(=O)(=O)c1ccccc1Cl (stereo not drawn)
AC50 (Cytochrome P450 2C19): 11.2 µM (inconclusive) | AC50 (Cytochrome P450 2D6): 0.891 µM (inconclusive) | AC50 (Cytochrome P450 3A4): 14.1 µM (inconclusive) | AC50 (Cytochrome P450 2C9): 0.00562 µM (inconclusive)

COc1ccc(-c2sc3ccccc3c2/C=C/c2ccc(N)cc2)cc1
AC50 [1]: 3.98 µM (active)

CCS(=O)(=O)c1ccc(O)c(NC(=O)Nc2ccccc2)c1
AC50 (Cytochrome P450 2C19): 39.8 µM (inconclusive) | AC50 (Cytochrome P450 1A2): 20 µM (inconclusive) | AC50 (Cytochrome P450 2C9): 7.08 µM (inconclusive)

CCO/C(O)=C/C(C)=N/c1cc(C)nn1-c1ccccc1
EC50 [2]: > 260 µM (inactive)

CN1CCN(c2ccc([N+](=O)[O-])c(NCc3ccco3)c2)CC1
AC50 [1]: 0.512 µM (active)

O=c1[nH][nH]c2cc(=O)n(-c3ccc(Cl)cc3)nc12
EC50 [3]: 15.4 µM (active) | EC50 [4]: 4.09 µM (active)

CCCCC/N=c1\ccn(Cc2ccccc2)c2ccccc12 [CP-339818]
AC50 (Cytochrome P450 1A2): 25.1 µM (inconclusive) | AC50 (Cytochrome P450 3A4): 15.8 µM (inconclusive)

From ChEMBL document CHEMBL1201862, “PubChem BioAssay data set” (2004)
